This data set deals with DU145 human prostate carcinoma cells. Briefly: In vivo antitumor efficacy, DU145 human prostate carcinoma xenograft in athymic mice. On the set-up: species or system Balb Nu/Nu athymic mice. The settings on record: for Toxicity: evaluated on the basis of body weight reduction, animals per group of 8, bevacizumab 20 mg/kg i.p., brostallicin 0.2 mg/kg i.v.; for Time to reach 1 g / T-C (days), delay for treated vs control tumors to reach 1 g: s.c. DU145 tumors in athymic mice, bevacizumab 20 mg/kg i.p. days 6,10,13,17,20,24; for Time to reach 1 g: treatment from day 6, brostallicin 0.2 mg/kg i.v. days 6,13,20 (q7d x 3); for T-C (days), delay for treated vs control tumors to reach 1 g: brostallicin 0.2 mg/kg i.v. days 6,13,20. How it is done: Balb Nu/Nu, male mice, (athymic mice) from Harlan, Italy, were maintained in cages with paper filter covers, food and bedding sterilized and water acidified. 2.5×10^6 DU145 human prostate carcinoma cells (from American Type Culture Collection) were injected subcutaneously in athymic mice. […] The treatments started 6 days later when the tumors were palpable. All drugs were prepared immediately before use. Brostallicin treatments were administered intravenously in a volume of 10 ml/kg at a dose of 0.2 mg/kg and treatments were repeated weekly for 3 weeks. Bevacizumab was administered intraperitoneally in a volume of 10 ml/kg at a dose of 20 mg/kg on the days 6, 10, 13, 17, 20 and 24 from the day of cell injection. When both compounds were administered on the same day, bevacizumab was administered intraperitoneally immediately before brostallicin intravenous injection. Every 3 days the tumor growth and the net body weight were evaluated. Tumor growth was assessed by caliper. The two diameters were recorded, and the tumor weight was calculated according to the following formula: length (mm)×width^2 (mm)/2. The effect of the antitumor treatment was determined as the delay in the onset of an exponential growth of tumors [see for reference, Anti Cancer Drugs 7: 437-60, 1996]. This delay (T-C value) was defined as the difference of the time (in days) required for the treatment group (T) and the control group (C) tumors to reach a predetermined size (e.g. 1 g). Toxicity was evaluated on the basis of the body weight reduction.

In the case of “Bevacizumab: monoclonal antibody directed against the vascular endothelial growth factor (VEGF), a potent neo-vascularisation inhibitor”, the Toxicity is 0/8; the “Time to reach 1 g” value was 23.4 ± 4.6 days; the “T-C (days), delay for treated vs control tumors to reach 1 g” value stood at 9.6 days.

With `C=C(Br)C(=O)Nc1cc(C(=O)Nc2cc(C(=O)Nc3cc(C(=O)Nc4cc(C(=O)NCCNC(=N)N)n(C)c4)n(C)c3)n(C)c2)n(C)c1.Cl` [Brostallicin, N-(5-{[(5-{[(5-{[(2-{[amino(imino)methyl]amino}ethyl)amino]carbonyl}-1-methyl-1H-pyrrol-3-yl)amino]carbonyl}-1-methyl-1H-pyrrol-3-yl)amino]carbonyl}-1-methyl-1H-pyrrol-3-yl)-4-[(2-bromoacryloyl)amino]-1-methyl-1H-pyrrole-2-carboxamide hydrochloride], the Toxicity is listed as 0/8; the “Time to reach 1 g” value is listed as 18.4 ± 5.6 days; the “T-C (days), delay for treated vs control tumors to reach 1 g” value is recorded as 4.6 days.

Values taken from patent US20090074757A1, “Antitumor Combination Comprising Substituted Acryloyl Distamycin Derivatives and Antibodies Inhibiting Growth Factors or Their Receptors” (priority 2005, published 2009).
